# Assay results from ChEMBL document CHEMBL1201862, “PubChem BioAssay data set” (2004).
#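 Results reflect a 48-hour exposure of cells in 96-well plates to compound at five concentrations. Here, GI50 denotes the concentration required for 50% inhibition of growth.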 Calls of active or inactive are those of the source. Rule as the data show it: active = GI50 up to about 1.1 µM and inactive = higher.
# Key:
# Assay in all cases: growth of human tumour cells (NCI), 48 h
# [1] = test system: NCI-H226
# [2] = test system: HL-60
# [3] = test system: NCI-H23
# [4] = test system: LOX IMVI
# [5] = test system: SK-MEL-28
# [6] = test system: SK-MEL-5
# [7] = test system: A498
# [8] = test system: CAKI-1
# [9] = test system: SF-295
# [10] = test system: NCI-H460
# [11] = test system: PC-3
# [12] = test system: SF-268
# [13] = test system: Hs-578T
# [14] = test system: MCF7
# [15] = test system: SF-539
# [16] = test system: SK-OV-3
Structure (SMILES),GI50 [1],GI50 [2],GI50 [3],GI50 [4],GI50 [5],GI50 [6],GI50 [7],GI50 [8],GI50 [9],GI50 [10],GI50 [11],GI50 [12],GI50 [13],GI50 [14],GI50 [15],GI50 [16]
NC(=O)/N=C(\N)NC(=O)c1ccccc1,> 100 µM (inactive),> 100 µM (inactive),> 100 µM (inactive),> 100 µM (inactive),> 100 µM (inactive),> 100 µM (inactive),> 100 µM (inactive),> 100 µM (inactive),> 100 µM (inactive),> 100 µM (inactive),> 100 µM (inactive),–,–,–,–,–
O=c1c(O)c(-c2cc(O)c(O)cc2O)oc2cc(O)c(C3OC(CO)C(O)C(O)C3O)c(O)c12 (stereo not given),> 100 µM (inactive),> 100 µM (inactive),–,> 100 µM (inactive),> 100 µM (inactive),–,> 100 µM (inactive),–,> 100 µM (inactive),> 100 µM (inactive),> 100 µM (inactive),> 100 µM (inactive),> 100 µM (inactive),> 100 µM (inactive),> 100 µM (inactive),> 100 µM (inactive)
COc1ccc(/C=N/NC(=O)O)cc1,–,–,> 100 µM (inactive),> 100 µM (inactive),> 100 µM (inactive),> 100 µM (inactive),> 100 µM (inactive),> 100 µM (inactive),> 100 µM (inactive),> 100 µM (inactive),> 100 µM (inactive),–,> 100 µM (inactive),> 100 µM (inactive),> 100 µM (inactive),> 100 µM (inactive)
O=C(O)c1ccccc1/C=N\N=C1NCCCCN1,> 100 µM (inactive),–,> 100 µM (inactive),> 100 µM (inactive),–,> 100 µM (inactive),> 100 µM (inactive),> 100 µM (inactive),> 100 µM (inactive),> 100 µM (inactive),> 100 µM (inactive),> 100 µM (inactive),> 100 µM (inactive),> 100 µM (inactive),> 100 µM (inactive),> 100 µM (inactive)
COc1ccc2nc3c([N+](=O)[O-])ccc(NCCCN(C)C)c3c(N)c2c1,1.99 µM (inactive),1.61 µM (inactive),1.99 µM (inactive),1.59 µM (inactive),1.62 µM (inactive),1.87 µM (inactive),–,1.81 µM (inactive),1.37 µM (inactive),1.21 µM (inactive),1.4 µM (inactive),1.45 µM (inactive),2.78 µM (inactive),1.15 µM (inactive),1.78 µM (inactive),1.45 µM (inactive)
NC1CC(=O)c2c(Br)csc21 (stereo not given),–,39.2 µM (inactive),–,–,25.9 µM (inactive),61.9 µM (inactive),78 µM (inactive),55 µM (inactive),–,41 µM (inactive),39.3 µM (inactive),39.3 µM (inactive),–,49 µM (inactive),35.6 µM (inactive),> 100 µM (inactive)
C[N+]1([O-])[C@H]2CC(OC(=O)[C@H](CO)c3ccccc3)C[C@H]1[C@H]1O[C@H]12 (stereo not given in full),> 100 µM (inactive),–,> 100 µM (inactive),> 100 µM (inactive),> 100 µM (inactive),> 100 µM (inactive),> 100 µM (inactive),> 100 µM (inactive),> 100 µM (inactive),–,> 100 µM (inactive),–,> 100 µM (inactive),> 100 µM (inactive),> 100 µM (inactive),> 100 µM (inactive)
CC12CC(=O)C3C(C(=O)C1)C32C (stereo not given),> 100 µM (inactive),–,> 100 µM (inactive),> 100 µM (inactive),> 100 µM (inactive),> 100 µM (inactive),> 100 µM (inactive),> 100 µM (inactive),> 100 µM (inactive),> 100 µM (inactive),> 100 µM (inactive),> 100 µM (inactive),–,> 100 µM (inactive),> 100 µM (inactive),> 100 µM (inactive)
N#CC(c1nc2ccccc2s1)c1nc(Cl)ncc1Br (stereo not given),39.5 µM (inactive),–,23.6 µM (inactive),29.3 µM (inactive),97.9 µM (inactive),19 µM (inactive),> 100 µM (inactive),33.4 µM (inactive),42.2 µM (inactive),46 µM (inactive),–,34 µM (inactive),–,–,31.5 µM (inactive),36.1 µM (inactive)
COc1ccc(NC(=S)N/N=C\c2ccc(NC(C)=O)cc2)cc1,–,41.1 µM (inactive),> 100 µM (inactive),> 100 µM (inactive),> 100 µM (inactive),> 100 µM (inactive),–,> 100 µM (inactive),> 100 µM (inactive),> 100 µM (inactive),> 100 µM (inactive),–,> 100 µM (inactive),–,–,> 100 µM (inactive)
CCOC(=O)c1csc(NC(=O)CN2CCN(c3ccccc3)CC2)n1,> 100 µM (inactive),70.6 µM (inactive),> 100 µM (inactive),> 100 µM (inactive),> 100 µM (inactive),34.8 µM (inactive),> 100 µM (inactive),> 100 µM (inactive),> 100 µM (inactive),> 100 µM (inactive),> 100 µM (inactive),–,–,> 100 µM (inactive),–,> 100 µM (inactive)
CCCCP(CCCC)(CCCC)=C(C(=O)OC)C(C(=O)OC)=C1SC(C(=O)OC)=C(C(=O)OC)S1,20 µM (inactive),–,17.5 µM (inactive),13.2 µM (inactive),15.5 µM (inactive),16.2 µM (inactive),–,–,19.3 µM (inactive),16 µM (inactive),11.1 µM (inactive),30.6 µM (inactive),18.5 µM (inactive),16.8 µM (inactive),–,25.8 µM (inactive)
Cc1ccc(OCC2=NN3C(=O)/C(=C\c4ccc([N+](=O)[O-])o4)SC3N2)cc1 (stereo not given),15.4 µM (inactive),1.59 µM (inactive),11.9 µM (inactive),3.66 µM (inactive),12.7 µM (inactive),8.99 µM (inactive),17.4 µM (inactive),14.6 µM (inactive),14.8 µM (inactive),18.7 µM (inactive),5.5 µM (inactive),4.07 µM (inactive),21.7 µM (inactive),–,2 µM (inactive),16.3 µM (inactive)
O=C(O)CCCN1CCCCC1,> 100 µM (inactive),–,> 100 µM (inactive),> 100 µM (inactive),> 100 µM (inactive),> 100 µM (inactive),> 100 µM (inactive),> 100 µM (inactive),> 100 µM (inactive),> 100 µM (inactive),> 100 µM (inactive),> 100 µM (inactive),> 100 µM (inactive),–,–,–
O=[N+]([O-])c1sc2ccc(Cl)cc2c1Nc1ccc(Cl)cc1,> 100 µM (inactive),> 100 µM (inactive),> 100 µM (inactive),> 100 µM (inactive),> 100 µM (inactive),> 100 µM (inactive),> 100 µM (inactive),–,> 100 µM (inactive),> 100 µM (inactive),> 100 µM (inactive),> 100 µM (inactive),> 100 µM (inactive),> 100 µM (inactive),> 100 µM (inactive),> 100 µM (inactive)
CC(C)c1ccc2c(c1)[C@@]1(C)CC[C@H](C)C(C)(C)C1CC2 (stereo not given in full),17.3 µM (inactive),34.4 µM (inactive),18.8 µM (inactive),17.6 µM (inactive),17 µM (inactive),20.3 µM (inactive),17.7 µM (inactive),23.9 µM (inactive),20.6 µM (inactive),18.6 µM (inactive),–,19.1 µM (inactive),24 µM (inactive),17.2 µM (inactive),23.4 µM (inactive),18.5 µM (inactive)
O=C(Nc1ccccc1)N1CCN(C(=O)Nc2ccccc2)C1=S,28.1 µM (inactive),29.3 µM (inactive),22.3 µM (inactive),> 100 µM (inactive),> 100 µM (inactive),> 100 µM (inactive),0.0652 µM (active),41.7 µM (inactive),23.4 µM (inactive),65 µM (inactive),–,20 µM (inactive),35.9 µM (inactive),–,18.5 µM (inactive),28.6 µM (inactive)
O=C(O)C(/C=C/c1ccccc1)c1ccccc1 (stereo not given),> 100 µM (inactive),9.25 µM (inactive),> 100 µM (inactive),> 100 µM (inactive),> 100 µM (inactive),> 100 µM (inactive),> 100 µM (inactive),–,> 100 µM (inactive),> 100 µM (inactive),> 100 µM (inactive),> 100 µM (inactive),> 100 µM (inactive),> 100 µM (inactive),> 100 µM (inactive),> 100 µM (inactive)
CC(C)(C)c1ccc(-c2nnc(-c3cc(C#N)cc(-c4nnc(-c5ccc(C(C)(C)C)cc5)o4)c3)o2)cc1,> 100 µM (inactive),–,> 100 µM (inactive),> 100 µM (inactive),> 100 µM (inactive),> 100 µM (inactive),> 100 µM (inactive),> 100 µM (inactive),> 100 µM (inactive),> 100 µM (inactive),> 100 µM (inactive),> 100 µM (inactive),33 µM (inactive),–,–,> 100 µM (inactive)
CON(C)C(=O)C(C)N(Cc1ccccc1)Cc1ccccc1 (stereo not given),64.6 µM (inactive),46.9 µM (inactive),46.3 µM (inactive),–,> 100 µM (inactive),41.3 µM (inactive),> 100 µM (inactive),–,> 100 µM (inactive),59 µM (inactive),19.1 µM (inactive),> 100 µM (inactive),50 µM (inactive),58.3 µM (inactive),> 100 µM (inactive),66.8 µM (inactive)
